Experiment [1] deals with T1, Menin/MLL (menin, FITC-MBM1 peptide) (Homo sapiens, UniProt O00255, T541A).
T1 construct: 6xHis (C)
T1 sequence (O00255 with tags, fused parts or gaps T541A): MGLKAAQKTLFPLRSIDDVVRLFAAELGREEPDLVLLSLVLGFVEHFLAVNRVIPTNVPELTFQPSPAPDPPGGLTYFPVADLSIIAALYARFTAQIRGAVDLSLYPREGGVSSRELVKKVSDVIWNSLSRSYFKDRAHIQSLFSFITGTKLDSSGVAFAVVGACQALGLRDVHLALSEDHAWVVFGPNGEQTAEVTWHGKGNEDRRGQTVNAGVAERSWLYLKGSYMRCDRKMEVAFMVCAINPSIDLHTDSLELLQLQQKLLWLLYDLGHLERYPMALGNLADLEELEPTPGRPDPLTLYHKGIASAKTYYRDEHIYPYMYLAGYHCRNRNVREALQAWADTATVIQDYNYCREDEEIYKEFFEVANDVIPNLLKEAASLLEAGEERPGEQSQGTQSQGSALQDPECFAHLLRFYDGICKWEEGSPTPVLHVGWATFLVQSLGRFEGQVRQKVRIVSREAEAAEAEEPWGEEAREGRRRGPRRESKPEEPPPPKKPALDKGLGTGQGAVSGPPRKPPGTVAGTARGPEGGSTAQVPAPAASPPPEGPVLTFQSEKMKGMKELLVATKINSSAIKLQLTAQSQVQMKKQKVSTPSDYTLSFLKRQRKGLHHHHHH
Description: Menin/MLL fluorescence polarization (FP) assay. It counts as binding. To be noted: averaged values over all measurements; read-out: Menin FP assay (IC50). The procedure: Pharmacological Part 1) Menin/MLL Fluorescence Polarization Assay
To a non-surface binding, black 384-well microtiter plate was added 50 nL 160× test compound in DMSO and 4 μL 2× menin in assay buffer (40 mM Tris-HCl, pH 7.5, 50 mM NaCl, 1 mM DTT and 0.001% Tween 20). After incubation of test compound and menin for 10 min at ambient temperature, 4 μL 2×FITC-MBM1 peptide (FITC-β-alanine-SARWRFPARPGT-NH2) in assay buffer was added, the microtiter plate centrifuged at 1000 rpm for 1 min and the assay mixtures incubated for 15 min at ambient temperature. The relative amount of menin: FITC-MBM1 complex present in an assay mixture is determined by measuring the fluorescence polarization (FP) of the FITC label with a BMG Pherastar plate reader (ex. 485 nm/em. 520 nm) at ambient temperature. The final concentrations of reagents in the binding assay are 100 nM menin, 5 nM FITC-MBM1 peptide and 0.625% DMSO in assay buffer. Dose-response titrations of test compounds are conducted using an 11 point, three-fold serial dilution scheme, starting at 31 μM.
Compound potencies were determined by first calculating % inhibition at each compound concentration according to equation 1: % inhibition=((HC−LC)−(FP^compound−LC))/(HC−LC))*100 (Eqn 1)
Where LC and HC are the FP values of the assay in the presence or absence of a saturating concentration of a compound that competes with FITC-MBM1 for binding to menin, and FP^compound is the measured FP value in the presence of the test compound. HC and LC FP values represent an average of at least 16 replicates per plate.
(§1) Where Bottom and Top are the lower and upper asymptotes of the dose-response curve, respectively, IC50 is the concentration of compound that yields 50% inhibition of signal and h is the Hill coefficient.
(In general: Fluorescence polarisation rises when a labelled molecule tumbles more slowly, as on binding a larger partner.)

In experiment [2] the target is T2, Menin/MLL (terbium chelate-labeled menin, FITC-MBM1 peptide) (Homo sapiens, UniProt O00255, T541A).
T2 construct: Menin (a.a. 1-610-6×his tag) was labeled with terbium cryptate as follows
T2 sequence (O00255 with tags, fused parts or gaps T541A): T1 sequence (O00255 with tags, fused parts or gaps T541A)
Description: Menin/MLL homogenous time-resolved fluorescence (HTRF) assay. It counts as binding. The settings on record: averaged values over all measurements; read-out: Menin HTRF assay (IC50). How it is done:
3) Menin/MLL Homogenous Time-Resolved Fluorescence (HTRF) Assay
To an untreated, white 384-well microtiter plate was added 40 nL 200× test compound in DMSO and 4 μL 2× terbium chelate-labeled menin (vide infra for preparation) in assay buffer (40 mM Tris-HCl, pH 7.5, 50 mM NaCl, 1 mM DTT and 0.05% Pluronic F-127). After incubation of test compound and terbium chelate-labeled menin for 5 min at ambient temperature, 4 μL 2×FITC-MBM1 peptide (FITC-β-alanine-SARWRFPARPGT-NH2) in assay buffer was added, the microtiter plate centrifuged at 1000 rpm for 1 min and the assay mixtures incubated for 15 min at ambient temperature. The relative amount of menin⋅FITC-MBM1 complex present in an assay mixture is determined by measuring the homogenous time-resolved fluorescence (HTRF) of the terbium/FITC donor/acceptor fluorophore pair using a BMG Pherastar plate reader (ex. 337 nm/terbium em. 490 nm/FITC em. 520 nm) at ambient temperature. The degree of fluorescence resonance energy transfer (the HTRF value) is expressed as the ratio of the fluorescence emission intensities of the FITC and terbium fluorophores (F^em 520 nm/F^em 490 nm). The final concentrations of reagents in the binding assay are 100 pM terbium chelate-labeled menin, 75 nM FITC-MBM1 peptide and 0.5% DMSO in assay buffer. Dose-response titrations of test compounds are conducted using an 11 point, three-fold serial dilution scheme, starting at 31 μM.
Compound potencies were determined by first calculating % inhibition at each compound concentration according to equation 1: % inhibition=((HC−LC)−(HTRF^compound−LC))/(HC−LC))*100 (Eqn 1)
Where LC and HC are the HTRF values of the assay in the presence or absence of a saturating concentration of a compound that competes with FITC-MBM1 for binding to menin, and HTRF^compound is the measured HTRF value in the presence of the test compound. HC and LC HTRF values represent an average of at least 16 replicates per plate.
as §1
Preparation of Terbium cryptate labeling of Menin: Menin (a.a. 1-610-6×his tag) was labeled with terbium cryptate as follows. 2 mg of Menin was buffer exchanged into 1× phosphate buffered saline. 16 uM Menin was incubated with 4-fold molar excess NHS-terbium cryptate (Cisbio Bioassays, Bedford, Mass.) for 2 hours at room temperature. The labeled protein was purified away from free label by running the reaction over a Superdex 200 Increase 10/300 GL column at 0.75 ml/min. Peak fractions were collected, aliquoted and frozen at −80° C.
(Time-resolved FRET reads energy transfer from a long-lived donor to a nearby acceptor.)

Another experiment relates to MV-4-11. Description: Proliferation assay (spheroid assay) MV-4-11. It counts as cell-based, human. To be noted: Homo sapiens, MV4-11, MV-4-11; averaged values over all measurements; read-out: Spheroid assay MV-4-11 (IC50). The procedure: (§2) The anti-proliferative effect of menin/MLL protein/protein interaction inhibitor test compounds was assessed in human leukemia cell lines. The cell lines MV-4-11 and MOLM14 harbor MLL translocations and express the MLL fusion proteins MLL-AF4 and MLL-AF9, respectively, as well as the wildtype protein from the second allele. […] K562 and KG1 were used as a control cell lines containing two MLL wildtype alleles in order to exclude compounds that display general cytotoxic effects.
(§3) MV-4-11 and MOLM14 were cultured in RPMI-1640 (Sigma Aldrich) supplemented with 10% fetal bovine serum (HyClone), 2 mM L-glutamine (Sigma Aldrich) and 50 μg/ml gentamycin (Gibco). K562 were propagated in RPMI-1640 (Sigma Aldrich) supplemented with 20% fetal bovine serum (HyClone), 2 mM L-glutamine (Sigma Aldrich) and 50 μg/ml gentamycin (Gibco). KG1 were cultured in Iscove's MDM (Gibco) supplemented with 20% fetal bovine serum (HyClone), 2 mM L-glutamine (Sigma Aldrich) and 50 μg/ml gentamycin (Gibco).
(§4) In order to assess the anti-proliferative effects, 1,500 MV-4-11, 300 MOLM14, 750 K562 or 1,300 KG1 cells were seeded in 200 μl media per well in 96-well round bottom, ultra-low attachment plates (Costar, catalogue number 7007). Cell seeding numbers were chosen based on growth curves to ensure linear growth throughout the experiment. Test compounds were added at different concentrations and the DMSO content was normalized to 0.3%. Cells were incubated for 8 d at 37° C. and 5% CO2. Spheroid like growth was monitored in real-time by live-cell imaging (IncuCyteZOOM, Essenbio, 4× objective) acquiring one image every four hours for 8 d. Confluence (%) as a measure of spheroid size was determined using an integrated analysis tool.
(§5) In order to determine the cumulative effect of the test compounds over time, the area under the curve (AUC) in a plot of confluence against time was calculated. Confluence at the beginning of the experiment (t=0) was used as baseline for the AUC calculation.
(§6) Absolute IC50 values were calculated according to the following procedure: % Control=(AUC sample/AUC control)*100
(§7) AUC control=mean AUC of control values (cells without compound/DMSO as vehicle control)
(§8) A non-linear curve fit was applied using the least squares (ordinary) fit method to the plot of % control versus compound concentration. Based on this, the absolute IC50 value (half maximal inhibitory concentration of the test compound causing an anti-proliferative effect of 50% relative to the vehicle control) was calculated.

In another experiment the test system is MOLM14. Briefly: Proliferation assay (spheroid assay) MOLM14. It counts as cell-based, human. The settings on record: Homo sapiens, MOLM-14, MOLM14; averaged values over all measurements; read-out: Spheroid assay MOLM14 (IC50). How it is done:
as §2, §3, §4, §5, §6, §7, §8

Each structure is given as a SMILES string.

As a reminder, the IC50 is the concentration at which inhibition is half-maximal.

Take `Cn1cc(CN2CC3CCN(c4ncnc5sc(CC(F)(F)F)cc45)CC3C2)cn1` (centres unmarked) [Compound 34]: the IC50 in experiment [1] is 780 nM; in experiment [2], 1980 nM.
Taken in the same sequence, the figures for `FC(F)(F)Cc1cc2c(N3C[C@@H]4CN(Cc5ccccc5)[C@@H]4C3)ncnc2s1` [Compound 32] were 1560 nM and 2780 nM.
As to `CC(C)CN1CC[C@H]2CN(c3ncnc4sc(CC(F)(F)F)cc34)C[C@H]21` (single isomer, unassigned) [Compound 28B], the values for the IC50 in experiment [1] and in experiment [2] were 1380 nM and 2490 nM, respectively.
For `Cn1cc(CN2CC[C@H]3CN(c4ncnc5sc(CC(F)(F)F)cc45)C[C@H]32)cn1` [Compound 27B], the IC50 was 3650 nM in experiment [1] and 8990 nM in experiment [2].
Regarding `Cn1cc(CN2CCCC3C2CCN3c2ncnc3sc(CC(F)(F)F)cc23)cn1` (centres unmarked) [Compound 21], the 50% inhibitory concentration (IC50) stood at 1770 nM in experiment [1] and 2120 nM in experiment [2].
As to `O=S(=O)(c1ccccc1)N1CC[C@@H]2CN(c3ncnc4sc(CC(F)(F)F)cc34)CC[C@@H]21` [Compound 16], the IC50 in experiment [1] came to 1530 nM.
As for `NCCn1cc(CN2CCC3CN(c4ncnc5sc(CC(F)(F)F)cc45)CCC32)cn1` (centres unmarked) [Compound 26], the results for the IC50 (in experiment [2]; with MV-4-11; in the experiment with MOLM14) were 54 nM, 4700 nM and 5600 nM, respectively.
Consider `Cn1ccc(CN2CC[C@@H]3CN(c4ncnc5sc(CC(F)(F)F)cc45)CC[C@@H]32)n1` (single isomer, unassigned) [Compound 14], for which the IC50 in experiment [1] was determined as 1120 nM.
Regarding `O=C(C1CCCOC1)N1CCC(CN2CC[C@@H]3CN(c4ncnc5sc(CC(F)(F)F)cc45)C[C@@H]3C2)CC1` (single isomer, unassigned) [Compound 92], the IC50 in experiment [2] worked out at 14 nM; in the experiment on MV-4-11, 450 nM.
The like results for `FC(F)(F)Cc1cc2c(N3C[C@H]4CCN(Cc5cnsc5)C[C@H]4C3)ncnc2s1` (single isomer, unassigned) [Compound 52] were, in that order, 41 nM and 860 nM.
As to `O=S(=O)(c1ccccc1)N1CC[C@H]2CN(c3ncnc4sc(CC(F)(F)F)cc34)CC[C@H]21` (single isomer, unassigned) [Compound 17], the IC50 in experiment [1] worked out at 1850 nM.
Consider `FC(F)(F)Cc1cc2c(N3C[C@H]4CCN(Cc5cccnc5)C[C@H]4C3)ncnc2s1` (single isomer, unassigned) [Compound 56], for which the IC50 in experiment [2] was 41 nM; in the experiment with MV-4-11, 1400 nM.
Taken in the same sequence, the figures for `CC(=O)N1CCC(CN2CC[C@@H]3CN(c4ncnc5sc(CC(F)(F)F)cc45)C[C@@H]3C2)CC1` (single isomer, unassigned) [Compound 76] were 105 nM and 2900 nM.
Take `FC(F)(F)Cc1cc2c(N3CCC4C(CCN4Cc4ncc[nH]4)C3)ncnc2s1` (centres unmarked) [Compound 22]: the IC50 in experiment [1] worked out at 2410 nM.
As for `CC(C)(C)CC(=O)N1CCC(CN2CC[C@@H]3CN(c4ncnc5sc(CC(F)(F)F)cc45)C[C@@H]3C2)CC1` (single isomer, unassigned) [Compound 93], the IC50 is 20 nM in experiment [2] and 580 nM in the experiment on MV-4-11.
As to `O=C(c1ccncc1)N1CCC(CN2CC[C@@H]3CN(c4ncnc5sc(CC(F)(F)F)cc45)C[C@@H]3C2)CC1` (single isomer, unassigned) [Compound 108], the values for the IC50 (in experiment [2]; in the experiment with MV-4-11) were 23 nM and 870 nM, respectively.
Regarding `Cn1cncc1CN1CC[C@@H]2CN(c3ncnc4sc(CC(F)(F)F)cc34)C[C@@H]2C1` (single isomer, unassigned) [Compound 54], the values for the IC50 (in experiment [2]; in the experiment on MV-4-11) were 97 nM and 2100 nM, respectively.
Taken in the same sequence, the figures for `FC(F)(F)Cc1cc2c(N3C[C@H]4CCN(CCC5CCOCC5)C[C@H]4C3)ncnc2s1` (single isomer, unassigned) [Compound 59] were 212 nM and 1800 nM.
Take `FC(F)(F)Cc1cc2c(N3C[C@H]4CCN(Cc5cnoc5)C[C@H]4C3)ncnc2s1` (single isomer, unassigned) [Compound 51]: the IC50 worked out at 62 nM in experiment [2] and 2300 nM in the experiment with MV-4-11.

For the origin of these results see US10611778B2, “Fused bicyclic inhibitors of menin-MLL interaction” (Janssen Pharmaceutica NV, priority 2016, dated 2020).
